Experimental data: patent US11731933B2, “Device and method for the desalination of water by means of thermal deionisation and liquid-phase ion extraction liquid” (ADIONICS, priority 2015, dated 2023)
≈ marks a conversion by molar mass, not a printed value. Where “and” joins values, the source holds several entries; their conditions need not be identical. Equal values may be shown once. Read-outs that look alike come from different tables or passages of the source. Each block holds one molecule with its values, some of them ahead of it.

Columns and labels:
[1] = Solubility in water (UV-visible spectrometry); format: physicochemical; conditions: for solubility: water
Excerpt: The hydrophobicity or solubility of a compound can be measured by standard methods and in particular by UV-visible spectrometry.

[2] = NaCl extraction from 0.2M NaCl water by ASM/CEM composition, ion chromatography of treated water; conditions: ASM: 3TFMPhOH; CEM 0.2M; NaCl 0.2M water
Method: To 3 mL of 3-(trifluoromethyl)phenol, was added 217 mg of Dibenzo-18-crown-6 in order to obtain a formulation with 0.2 mole/L of DB18C6. This sealed formulation was then orbitally stirred at 500 rpm overnight after 1 mL of distilled water was added twice to allow water saturation of the whole.
The next morning, an aqueous 0.2 mol/L NaCl solution was prepared from twice distilled water, while the formulation that was stirred overnight was allowed to stand for decantation. A clear decantation of the two colorless phases is obtained in a few minutes. 3 mL of the organic extraction solution is then removed and transferred to a flask containing 3 mL of this salt water containing 0.2 M NaCl, then the flask is sealed and orbitally stirred (usually 500 rpm), for 3 hours and at room temperature. It is verified that droplets of the order of 1-2 mm are present in quantity at the selected stirring speed (400 to 900 rpm).
After stirring for 2 hours, stirring is stopped and the whole is left to stand for decantation for at least 10 minutes until the two phases are completely separated. The upper aqueous phase is then removed and then stirred and diluted for analysis of its salinity by a Metrohm Ion Chromatography Incorporating a suitable cation analysis column and a suitable anion analysis column. Similarly, the initial aqueous solution of 0.2M NaCl is also analyzed by this ion chromatography equipment to determine its relative concentration of sodium and chlorides. […]

[3] = methanol, published complexing constants, cited from earlier work
[4] = NaCl extraction from 0.3M NaCl water by ASMC7 at four concentrations + Calix[4]Est in chloroform (Example 12)
Method: Four extraction compositions were obtained by solubilizing a constant amount of 4-tert-butylCalix[4]arene tetraethylEster (CAS No. 97600-39-0) and four increasing amounts of ASMC7 in chloroform CHCl3 to obtain four final concentrations after solubilization of CEM and ASM, from 0.34 to 0.36 mol/L for Calix[4]Est and 0.36 mol/L, 0.71 mol/L, 1.09 mol/L and 1.49 mol/L for ASMC7, respectively. These four sealed formulations were then orbitally stirred at 500 rpm for 2 hours after adding an equivalent volume of twice distilled water to allow water saturation of the entire formulation and control of pH at the output (pH=7). The extraction composition is then put to stand for settling. All the compositions tested are stable and rapidly decanted (a few minutes at the most).
An 0.3 mol/L NaCl aqueous solution was prepared from twice distilled water.
3 ml of each organic extraction composition are then removed in the lower phase of the settled two-phase mixture and transferred to four vials, each containing 3 ml of the salt water at 0.3M NaCl, then the flasks are sealed and orbitally stirred (at 500 revolutions per minute), for 2 hours at room temperature (RT), that is to say between 20 and 25° C. In the case of extraction at 60° C., a magnetic stirring (at 500 revolutions per minute), for 2 hours, is carried out with indirect heating in a metal mold on a heating plate. It is verified that droplets of the order of 1-2 mm are present during these agitations in order to be certain to reach equilibrium in the NaCl distribution between the two liquid phases at the end of stirring. The appearance of the organic and aqueous phases is clear and colorless for these 4 formulations tested.
After stirring for 2 hours, stirring is stopped and the solution is put to stand for settling within 10 minutes, at least until the two phases have completely separated off, at the test temperature. Then, the four upper aqueous phases are separately taken and then stirred and diluted for analysis of their salinity by a Metrohm Ion Chromatograph incorporating a suitable cation analysis column and a suitable anion analysis column. Similarly, the initial aqueous solution of 0.3M NaCl is also analyzed by this ion chromatograph to determine its relative molar concentration of sodium and chlorides. All extractions and analyzes were duplicated.

[5] = NaCl extraction from 0.4M NaCl water by ASM + Calix[4]Est in chloroform (Example 11); conditions: for Mol % Cl- extracted from the water to be treated / Mol % Na+ extracted from the water to be treated: CEM 0.3 Mol/L, ASM 0.3 Mol/L in CHCl3, 0.4 M NaCl
Method: The extraction composition is obtained by solubilizing an amount of 4-tert-butyl Calix[4]arene tetraethyl Ester (CAS No. 97600-39-0) and ASM in chloroform CHCl3 to obtain a final concentration after solubilization of the CEM and ASM of 0.3 mol/L for Calix[4]Est and of 0.3 mol/L for ASM, respectively. These sealed formulations were then orbitally stirred at 500 rpm for 2 hours after adding an equivalent volume of twice distilled water to allow water saturation of the entire formulation and control of pH output (pH=7). The extraction composition is then put to stand to settle. All the compositions tested are stable and rapidly decanted (a few minutes at the most).
A 0.4 mol/L NaCl aqueous solution was prepared from twice distilled water.
The organic extraction composition is then slightly heated to promote solubilization of the compounds by hot air gun (temperature of about 50 to 60° C.) for a few seconds (10 to 30 seconds) until a clear solution is obtained.
3 mL of the organic extraction composition is then removed from the lower phase of the settled two-phase mixture and transferred to a vial containing 3 mL of salt water at 0.4 M NaCl and then the flask is sealed and orbitally stirred (at 500 revolutions per minute), for 2 hours at room temperature (RT), that is to say between 20 and 25° C. In the case of extraction at 60° C., magnetic stirring (at 500 revolutions per minute), for 2 hours, is carried out with indirect heating in a metal mold on a heating plate. It is verified that droplets of the order of 1-2 mm are present during these agitations in order to be certain to achieve equilibrium in the NaCl distribution between the two liquid phases at the end of stirring. The appearance of the organic and aqueous phases is clear and colorless or slightly cloudy.
After stirring for 2 hours, stirring is stopped and the solution is put to stand to settle within 10 minutes, at least until the two phases have completely separated off, at the temperature of the test. The upper aqueous phase is then removed and then stirred and diluted for analysis of its salinity by a Metrohm Ion Chromatograph incorporating a suitable cation analysis column and a suitable anion analysis column. Similarly, the initial aqueous solution of NaCl at 0.4M is also analyzed by this ion chromatograph to determine its relative molar concentration in sodium and in chlorides. AN extractions and analyzes were duplicated.

[6] = 60° C., CEM 0.341, ASMC7 0.708 Mol/L, ratio 2.08
[7] = 60° C., CEM 0.345, ASMC7 0.358 Mol/L, ratio 1.04
[8] = 60° C., CEM 0.349, ASMC7 1.088 Mol/L, ratio 3.12
[9] = 60° C., CEM 0.358, ASMC7 1.488 Mol/L, ratio 4.16
[10] = RT, CEM 0.341, ASMC7 0.708 Mol/L, ratio 2.08
[11] = RT, CEM 0.345, ASMC7 0.358 Mol/L, ratio 1.04
[12] = RT, CEM 0.349, ASMC7 1.088 Mol/L, ratio 3.12
[13] = RT, CEM 0.358, ASMC7 1.488 Mol/L, ratio 4.16

Molecule: CC(O)c1cccc(C(F)(F)C(F)(F)C(F)(F)F)c1 (centres unmarked)
solubility [1]: 420 µM (≈ 122 µg/mL)

solubility ([1]; read-out: Solubility in water): 480 µM (≈ 137 µg/mL)
Molecule: CCCC(O)c1cc(C(F)(F)F)cc(C(F)(F)F)c1 (centres unmarked)

solubility ([1]; read-out: Solubility in water): 70 µM (≈ 22.4 µg/mL)
Molecule: OC(c1cccc(C(F)(F)F)c1)c1cccc(C(F)(F)F)c1

Solubility in water [1]: < 1.10^−6 mMole/L
Molecule: 4-tert-Butylcalix[4]arene-O,O′,O″,O′′′- tetraacetic Acid Tetraethyl Ester [Calix[4]Est]
Extraction rate at 23° C., Cl− [2]: 77% | Extraction rate at 23° C., Na+ [2]: 75% | Extraction rate at 23° C., mean NaCl [2]: 76% | Log K(Na+, MeOH, 25° C.) ([3]; listed as Calix4Est): 5.0-5.7 | Log K(Na+, MeOH, 25° C.) [3]: 5.0

Molecule: CCCCCCCC(=O)Nc1cc(C(F)(F)F)cc(C(F)(F)F)c1 [ASMC7, N-[3,5-bis(trifluoromethyl)phenyl]octanamide]
Mol % of Cl− extracted from water to be treated [4, 6]: 26.6% and 27.4% | Mol % of Na+ extracted from water to be treated [4, 6]: 28.1% and 28.2% | Mol % of Cl− extracted from water to be treated [4, 7]: 13.0% and 14.1% | Mol % of Na+ extracted from water to be treated [4, 7]: 9.9% and 13.1% | Mol % of Cl− extracted from water to be treated [4, 8]: 31.0% and 30.4% | Mol % of Na+ extracted from water to be treated [4, 8]: 37.7% and 39.5% | Mol % of Cl− extracted from water to be treated [4, 9]: 45.6% and 39.9% | Mol % of Na+ extracted from water to be treated [4, 9]: 48.4% and 46.9% | Mol % of Cl− extracted from water to be treated [4, 10]: 44.4% | Mol % of Na+ extracted from water to be treated [4, 10]: 44.2% and 45.1% | Mol % of Cl− extracted from water to be treated [4, 11]: 27.9% and 27.2% | Mol % of Na+ extracted from water to be treated [4, 11]: 27.9% and 21.7% | Mol % of Cl− extracted from water to be treated [4, 12]: 51.2% and 52.9% | Mol % of Na+ extracted from water to be treated [4, 12]: 60.0% and 59.8% | Mol % of Cl− extracted from water to be treated [4, 13]: 64.6% and 65.6% | Mol % of Na+ extracted from water to be treated [4, 13]: 71.2% and 65.0% | Δ % ext ([4]; [ASMC7]/[CEM] 1.04): 13.6% | NaCl - 20° C. % ext (average) ([4]; [ASMC7]/[CEM] 1.04): 26.2% | NaCl - 60° C. % ext (average) ([4]; [ASMC7]/[CEM] 1.04, 60° C.): 12.5% | Δ % ext ([4]; [ASMC7]/[CEM] 2.08): 16.9% | NaCl - 20° C. % ext (average) ([4]; [ASMC7]/[CEM] 2.08): 44.5% | NaCl - 60° C. % ext (average) ([4]; [ASMC7]/[CEM] 2.08, 60° C.): 27.6% | Δ % ext ([4]; [ASMC7]/[CEM] 3.12): 21.3% | NaCl - 20° C. % ext (average) ([4]; [ASMC7]/[CEM] 3.12): 55.9% | NaCl - 60° C. % ext (average) ([4]; [ASMC7]/[CEM] 3.12, 60° C.): 34.5% | Δ % ext ([4]; [ASMC7]/[CEM] 4.16): 21.4% | NaCl - 20° C. % ext (average) ([4]; [ASMC7]/[CEM] 4.16): 66.6% | NaCl - 60° C. % ext (average) ([4]; [ASMC7]/[CEM] 4.16, 60° C.): 45.1% | NaCl - 20° C. % ext (average) ([5]; 20° C., average molar extraction): 24.6% | Mol % Cl- extracted from the water to be treated ([5]; 60° C.): 7.6% and 7.3% | Mol % Na+ extracted from the water to be treated ([5]; 60° C.): 5.5% and 5.4% | NaCl - 60° C. % ext (average) ([5]; 60° C., average molar extraction): 6.3% | Mol % Cl- extracted from the water to be treated ([5]; RT): 26.3% and 25.9% | Mol % Na+ extracted from the water to be treated ([5]; RT): 23.6% and 22.8% | Δ % ext ([5]; difference 20° C. minus 60° C.): 18.4%
